{"source": "patent US9468593B2", "about": "“Oral composition” (KABUSHIKI KAISHA SANGI, priority 2012, dated 2016)", "assay": "Test for liquid permeation through dentinal tubules (Pashley's protocol, split chamber device)", "set-up": "species or system human", "conditions": "component blended singly", "procedure": "A healthy human evulsion tooth was used to cut the tooth into sections in such a manner that dentin and dentinal tubules were exposed. The resulting sections were polished at a thickness of about 500 μm and were subjected to ultrasonic cleaning. […] The resulting solution was used as a test solution. Then, the sections whose portions other than the test surface had been masked were soaked in the test solution at 37° C. for 9 min per day. This soaking treatment was conducted for 5 days.\nIn addition, a test for liquid permeation through dentinal tubules was conducted. […] A dentin section was interposed between an inlet chamber and an outlet chamber of the above device. Then, the test solution was placed in the inlet chamber to treat the dentin surface. In addition, a Ringer's solution was injected using pressure in the inlet chamber before and after the treatment. By measuring the amount of flow through the outlet chamber, the liquid permeation through dentinal tubules was evaluated.\nThe effect of inhibiting liquid permeation through dentinal tubules of each test solution was determined as follows: first, a difference between the amount of flow of the Ringer's solution before and that after the treatment was determined; and a liquid permeation inhibition rate of the dentinal tubules was then calculated in percent units by using the following equation. […]"}
{"smiles": "O.O.O=P([O-])([O-])O.[Ca+2]", "note": "[calcium monohydrogen phosphate dihydrate]", "values": [{"measurement": "ability to occlude dentinal tubules of a tooth", "value": "had an ability to occlude dentinal tubules of a tooth"}]}
